# According to paper PMC8405607 (British Journal of Cancer, 2021):
# Like-named read-outs stand apart in the source and are kept apart here.
# Tests used:
# [1] = phase I clinical plasma pharmacokinetics (noncompartmental); Reg 1: 3qw continuous; Reg 3: 3qw 2 weeks on/1 week off; format: in vivo, human; settings: human, plasma, oral; for AUC(0-t): read-out: AUClast, Mean (SD); for Cmax: read-out: Cmax, Mean (SD)
# Description: Antitumor efficacy was assessed using computerised tomography (CT)/magnetic resonance imaging assessment at baseline and every 8 weeks until disease progression or the initiation of subsequent antineoplastic therapy or death, whichever occurred first. In addition, the criteria for determining confirmed partial response (PR) or complete response (CR) were required to be present for at least 4 weeks. Demographic and other baseline data and PK/PD parameters were summarised using descriptive statistics.[11] PK parameters were estimated using noncompartmental methods (Phoenix®, Pharsight, Mountain View, California, USA).
# [2] = human, in vivo
# Description: (§1) The protocol allowed switching to one or more of three alternative regimens; of these, the intermittent dosing regimen of 3qw for 2 weeks on/1 week off was investigated.
# (§2) Safety was assessed according to the National Cancer Institute Common Terminology Criteria for Adverse Events (NCI-CTCAE) v4.03. […] Fresh biopsies were collected on day 8 of cycle 1 along with a matching PK sample (6 h ± 2 h post-dose).
# [3] = test system: p53 target genes in SJSA-1 tumours; experiment: PK/PD experiment in SJSA-1 tumour-bearing mice (plasma exposure, p53 target gene mRNA); settings: 100 mg/kg
# Description: For PK/PD experiments, animals were randomised into groups of three, and tissue samples were collected at 0, 1, 3, 8, 16, 24 and 48 h. At the times indicated, animals were anaesthetised by exposure to 2–3% v/v isoflurane in medical oxygen.
# Subcutaneous SJSA-1, 778 and LP6 tumours were induced by injecting tumour cells expanded in vitro into the right flank of nude mice. […] The tumours were excised, weighed and rapidly frozen in liquid nitrogen. Later, they were cryogenically dry pulverised using the CryoPrep™ system (model CP-02, Covaris).
# The total RNA was purified from cell pellets using the QIAshredder (cat # 79654, Qiagen) and RNeasy Mini Kit (74106, Qiagen) according to the manufacturer’s instructions, with the exception that no DNA digestion was performed. Total RNA was quantitated using the spectrophotometer ND-1000 Nanodrop®. Quantitative reverse transcriptase PCR (qRT-PCR) was set up in triplicate per sample using either the One-Step RT qPCR Master Mix Plus (RT-QPRT-032X, Eurogentec) or the iTaq™ Universal Probes One-Step Kit (#1725141), with primers from TaqMan Gene Expression assays (20 × probe dye FAM™ [or VIC]-TAMRA [or MGB]; Applied Biosystems), including control primers (GUS-β 4310888E-1012026) and primers for the target genes (CDKN1A Hs00355782_m1; BBC3 Hs00248075_m1; MDM2 Hs01066930_m1). Alternatively, we performed a multiplex gene expression analysis on 104 p53 target genes with the NanoString assay.
# [4] = phase I clinical safety (NCI-CTCAE v4.03); Reg 1: 3qw continuous, 4-week cycle; Reg 3: 3qw, 2 weeks on/1 week off, 3-week cycle
# Description: as §1, §2
# [5] = 500 mg, 500 mg Reg.3, Cycle 1 Day 12, n 5
structure (smiles),measurement,setting,value
COc1cc2c(cc1OC(C)C)[C@H](c1ccc(Cl)cc1)N(c1ccc(N(C)C[C@H]3CC[C@H](N4CCN(C)C(=O)C4)CC3)cc1)C(=O)C2 [CGM097],AUC(0-t),"[1]; 500 mg, 500 mg Reg.3, Cycle 1 Day 8, n 4, Tlast=8h",41800 ng·h/mL
same,Cmax,"[1]; 500 mg, 500 mg Reg.3, Cycle 1 Day 8, n 6",7540 ng/mL
same,AUC(0-t),[1]; [5],503000 ng·h/mL
same,Cmax,[1]; [5],10700 ng/mL
same,AUC(0-t),"[1]; 500 mg, 500 mg Reg.3, Cycle 2 Day 1, n 6, Tlast=8h",26800 ng·h/mL
same,Cmax,"[1]; 500 mg, 500 mg Reg.3, Cycle 2 Day 1, n 6",4810 ng/mL
same,AUC(0-t),"[1]; 700 mg, 700 mg Reg.3, Cycle 1 Day 1, n 5, Tlast=24h",79100 ng·h/mL
same,Cmax,"[1]; 700 mg, 700 mg Reg.3, Cycle 1 Day 1, n 5",5590 ng/mL
same,AUC(0-t),"[1]; 700 mg, 700 mg Reg.3, Cycle 1 Day 8, n 4, Tlast=8h",58200 ng·h/mL
same,Cmax,"[1]; 700 mg, 700 mg Reg.3, Cycle 1 Day 8, n 4",9570 ng/mL
same,AUC(0-t),"[1]; 700 mg, 700 mg Reg.3, Cycle 1 Day 12, n 2",237000 ng·h/mL
same,Cmax,"[1]; 700 mg, 700 mg Reg.3, Cycle 1 Day 12, n 3",9240 ng/mL
same,AUC(0-t),"[1]; 700 mg, 700 mg Reg.3, Cycle 2 Day 1, n 4, Tlast=8h",35800 ng·h/mL
same,Cmax,"[1]; 700 mg, 700 mg Reg.3, Cycle 2 Day 1, n 4",5860 ng/mL
same,Tmax,"[1]; fasted state, across dose groups, read-out: median Tmax",1.6 to 4.17 h
same,"ALT increased all grades, suspected related to study drug",[2],5 (10) n %
same,"AST increased all grades, suspected related to study drug",[2],5 (10) n %
same,"Abdominal pain upper all grades, suspected related to study drug",[2],6 (12) n %
same,"Anaemia all grades, suspected related to study drug",[2],8 (16) n %
same,"Anaemia grade 3 or 4, suspected related to study drug",[2],4 (7.8) n %
same,"Asthenia all grades, suspected related to study drug",[2],7 (14) n %
same,"Blood CPK increased all grades, suspected related to study drug",[2],6 (12) n %
same,"Decreased appetite all grades, suspected related to study drug",[2],9 (18) n %
same,"Diarrhoea all grades, suspected related to study drug",[2],11 (22) n %
same,"Dizziness all grades, suspected related to study drug",[2],5 (10) n %
same,"Dysgeusia all grades, suspected related to study drug",[2],7 (14) n %
same,"Granulocytopenia grade 3 or 4, suspected related to study drug",[2],1 (2.0) n %
same,"Hyperlipasaemia grade 3 or 4, suspected related to study drug",[2],1 (2.0) n %
same,"Hyperlipidaemia grade 3 or 4, suspected related to study drug",[2],1 (2.0) n %
same,"Hypoalbuminemia all grades, suspected related to study drug",[2],5 (10) n %
same,"Leukopenia grade 3 or 4, suspected related to study drug",[2],4 (7.8) n %
same,"Lipase increased all grades, suspected related to study drug",[2],6 (12) n %
same,"Lipase increased grade 3 or 4, suspected related to study drug",[2],5 (9.8) n %
same,"Lymphocyte count decreased grade 3 or 4, suspected related to study drug",[2],1 (2.0) n %
same,"Lymphopenia all grades, suspected related to study drug",[2],10 (20) n %
same,"Nausea grade 3 or 4, suspected related to study drug",[2],2 (3.9) n %
same,"Neutropenia all grades, suspected related to study drug",[2],11 (22) n %
same,"Neutrophil count decreased grade 3 or 4, suspected related to study drug",[2],2 (3.9) n %
same,"Proteinuria grade 3 or 4, suspected related to study drug",[2],1 (2.0) n %
same,"White blood cell count decreased grade 3 or 4, suspected related to study drug",[2],4 (7.8) n %
same,"anaemia, any grade AE",[2],18 n
same,"fatigue, any grade AE",[2],18 n
same,haematologic AESIs regardless of study drug relationship,[2],64.7%
same,haematologic AESIs suspected to be treatment-related,[2],51%
same,"nausea, any grade AE",[2],24 n
same,patients with at least one AE leading to study drug discontinuation,[2],five
same,patients with at least one grade 4 AE,[2],10 patients
same,patients with grade 3 AEs regardless of study drug relationship,[2],Twenty-five
same,patients with grade 3 AEs suspected to be study drug-related,[2],11 patients
same,patients with grade 4 AEs regardless of study drug relationship,[2],12 patients
same,thrombocytopenia AESI,[2],43.1%
same,"thrombocytopenia, any grade AE",[2],22 n
same,"vomiting, any grade AE",[2],18 n
same,"PUMA induction, Emax",[3]; SJSA-1 tumours,19 fold
same,"p21 induction, maximum effect Emax",[3]; SJSA-1 tumours,41 fold
same,HDM2 increase in expression,"[3]; SJSA-1 tumours, compared with p21 and PUMA",lowest increase
same,time at which pharmacological activity reached basal levels,[3]; post treatment,48 h
same,MTD,[4]; 10-700 mg,not reached
same,deaths suspected to be treatment-related,"[4]; human, in vivo",none
same,deaths on treatment,"[4]; two on study drug, five within 30 days of discontinuation",Seven
